“Also recorded” adds a separate entry of the source.
Key:
[1] = test system: mouse liver mitochondria (complex I); experiment: AuPhos-induced OCR in mouse liver mitochondria; format: biochemical; details: complex I-driven, substrates pyruvate and succinate
Description: (§1) FIGS. 8A-8J present properties of AuPhos. FIG. 8A includes a chemical structure of AuPhos. FIG. 8B includes extrapolated AuPhos-induced OCR (complex I) in liver mitochondria. […] FIG. 8E provides weight change in AuPhos-treated mice over time. FIG. 8F presents stability of AuPhos in PBS and DMEM. FIG. 8G presents stability of AuPhos in PBS and DMEM. FIG. 8H includes an AuPhos-induced Heat map of DEG (left Panel), obtained using log 2(Fold Change) and p-Value <0.00001 thresholds in MDA-MB-231(107) cells (n=2), and the top six hits of KEGG analysis (right panel). FIG. 8I presents biodistribution and pharmacokinetics of AuPhos in different tissues; Colon, Small bowel, Lung, Kidney, Spleen, Liver, Heart and Blood after single dose (oral, 25 mg/kg) administration of AuPhos at 6 h, 12 h and 24 h. FIG. 8J presents biodistribution and pharmacokinetics of AuPhos in different tissues stool after single dose (oral, 25 mg/kg) administration of AuPhos at 6 h, 12 h and 24 h.
(§2) OxPHOS will be then be stimulated by subsequent addition of ADP followed by additional CI substrate glutamate (5 mM). […] Residual non-mitochondrial oxygen consumption will be determined by addition of complex III inhibitor antimycin-A (1 ug/ml). Oxygen consumption rate (OCR) of isolated mitochondria will also be evaluated using Oxygraph-2K or high-throughput Seahorse XFe24 Extracellular Flux Analyzer (Agilent Technologies). […]

MDA-MB-231 cells = experiment: Transcriptomics of global mRNA changes after AuPhos exposure; format: cell-based; details: 12 h exposure
Description: as §1
This observation was mitochondrial complex I-driven when different substrates, i.e. pyruvate and succinate, were used to measure the OCR. Transcriptomics was used to study global changes in mRNA in response to a 12 h exposure of AuPhos to MDA-MB-231 cells (FIG. 8H).

colonic IEC = experiment: High-resolution respirometry (OCR), mtDNA and mRNA of colonic IEC from AuPhos-fed mice; format: in vivo, mouse
Description: FIG. 10B includes high resolution respirometry results showing OCR in mitochondrial complexes of IECs from (A). […] FIG. 10D provides results of RT-qPCR analysis of genes associated with mitochondrial respiratory enzymes in AuPhos vs. control DSS mice. Stats—2-way ANOVA with Sidak's multiple comparison test. ★★<0.01, ★★★<0.0001.
FIGS. 16A-16E illustrate the pharmacokinetics and effects of AuPhos on mitochondrial bioenergetics. FIG. 16A. Biodistribution and pharmacokinetics of AuPhos in different tissues; Colon, Small bowel, Spleen, Liver after a single intragastric (i.g.) gavage (25 mg/kg) with measurements of AuPhos tissue levels (graphite furnace atomic absorption spectroscopy) at times indicated. FIG. 16B. Mitochondrial uptake of AuPhos by measuring gold content in mitochondrial fractions in normal colonocytes (NCM460). FIG. 16C. High-resolution respirometry showing OCR in mitochondrial complexes of freshly isolated IECs from AuPhos (25 mg/kg; q3D×3 doses)-fed mice compared to controls (vehicle only). Stats—2-way ANOVA with Sidak's multiple comparison test. ß<0.05, ßß<0.01. FIG. 16D.
Isolated IECs will be suspended in a mitochondria respiration medium and integrated respiration evaluated using Oxygraph-2K (Oroboros Instruments). Briefly, the capacity of electron transport system (ETS) will be evaluated by direct titration of protonophore, carbonyl cyanide p-(trifluoromethoxy) phenylhydrazone ([…]) after stabilization of routine respiration. After routine endogenous respiratory phase, cells will be permeabilized with digitonin and complex I (CI) substrates malate and pyruvate (5 mM, respectively).
as §2

[2] = test system: normal human colonic biopsies; experiment: Western blot of human colonic biopsies incubated with AuPhos; format: cell-based
Method: FIG. 14A Normal human colonic biopsies were incubated a^t 4° C. with AuPhos×3 hrs and membrane fractions examined for mitochondrial complexes expression by WB. FIG. 14B TNF-stimulated colonic NCM460 cells were treated overnight with AuPhos at concentrations indicated. WB for markers indicated are shown in nuclear and membranous protein fractions. FIG. 14C Markers of PI3K pathway were probed in nuclear and cytosolic fractions of AuPhos-treated NCM460 cells (treated with TNF). FIG. 14D NCM460 cell were treated overnight with TNF and probed for the ROS-induced P-PTEN, which inactivates PTEN and activates PI3K.
Control or DSS colitis mice were gavaged with vehicle (−) or AuPhos (+) (as in FIG. 2) and sacrificed on D14. WB of isolated IEC proteins indicated are shown in nuclear and membranous protein fractions along with densitometry. (#mice=4 for each condition). *p<0.04. FIG. 16E. Normal human colonic biopsies were incubated at 4° C. with AuPhos×3 hrs. Membranous and nuclear fractions examined for indicated proteins by WB.
The effects of AuPhos in Px-accelerated IL-10KO mice by beginning treatment on D21 (7D after cessation of Px) when colitis is severe is shown in FIG. 13A. AuPhos-induced mitochondrial biogenesis and PI3K signaling. […]

[Cl][Au]1([c]2ccccc2Cc2ccccn2)[P](c2ccccc2)(c2ccccc2)c2ccccc2[P]1(c1ccccc1)c1ccccc1 [AuPhos]
mitochondrial respiration (OCR) [1]: directly and rapidly enhances mitochondrial respiration; also recorded: significant increase in mitochondrial respiration induced by AuPhos in a dose-dependent manner | differentially expressed genes (mRNA) (MDA-MB-231 cells): mitochondrial OXPHOS genes: MT-ND1-5, MT-CYB, MT-CO1-3, and MTATP6 were modulated | OCR in IEC in vivo (colonic IEC; 25 mg/kg q3D x3 doses, freshly isolated colonic IEC, OROBOROS 2K): increased OCR in IEC in vivo from states II-V; also recorded: enhances mitochondrial respiration; also recorded: increased OCR (OxPHOS) | mtDNA (mtDNA/nucDNA ratio) in IEC (colonic IEC; IEC from AuPhos-treated mice): increased mtDNA; also recorded: higher mtDNA/nucDNA ratio | mRNA for mitochondrial CO1 and COX2 (colonic IEC; IEC from AuPhos-treated mice, RT-qPCR): increased | mitochondrial complex levels ([2]; fresh human biopsies, dose range of AuPhos, after 3 h, WB): rapid increased in complexes | mitochondrial complex levels and downstream signaling ([2]; human biopsies, 4° C., AuPhos x3 hrs, WB (FIG. 16E)): increases mitochondrial complex levels and downstream signaling

From patent US12521415B2, “Accelerating repair of mucosal injury using gold(III) compounds” (University of Kentucky Research Foundation, priority 2020, dated 2026)
